Measured values as given in ChEMBL document CHEMBL1201862, “PubChem BioAssay data set” (2004).
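Protocol summary: plate cells (96-well), add compound at 5 concentrations, incubate 48 h, interpolate endpoints linearly. GI50 = concentration required for 50% inhibition of growth.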 Calls of active or inactive are those of the source. No stated cut-off is given here; in the data, active = GI50 up to about 1.1 µM and inactive = higher.

Key:
Assay in all cases: inhibition of tumour cell growth, NCI panel, 48 h
EKVX = tested on: EKVX
HCC 2998 = tested on: HCC 2998
HCT-15 = tested on: HCT-15
HL-60 = tested on: HL-60
HOP-92 = tested on: HOP-92
K562 = tested on: K562
KM12 = tested on: KM12
NCI-H23 = tested on: NCI-H23
OVCAR-3 = tested on: OVCAR-3
RXF 393 = tested on: RXF 393
SF-268 = tested on: SF-268
SK-OV-3 = tested on: SK-OV-3
SN12C = tested on: SN12C
SNB-19 = tested on: SNB-19
SNB-75 = tested on: SNB-75
UACC-257 = tested on: UACC-257
UACC-62 = tested on: UACC-62
RPMI-8226 = tested on: RPMI-8226
SK-MEL-5 = tested on: SK-MEL-5
Hs-578T = tested on: Hs-578T

| Compound | GI50 (EKVX) | GI50 (HCC 2998) | GI50 (HCT-15) | GI50 (HL-60) | GI50 (HOP-92) | GI50 (K562) | GI50 (KM12) | GI50 (NCI-H23) | GI50 (OVCAR-3) | GI50 (RXF 393) | GI50 (SF-268) | GI50 (SK-OV-3) | GI50 (SN12C) | GI50 (SNB-19) | GI50 (SNB-75) | GI50 (UACC-257) | GI50 (UACC-62) | GI50 (RPMI-8226) | GI50 (SK-MEL-5) | GI50 (Hs-578T) |
| --- | --- | --- | --- | --- | --- | --- | --- | --- | --- | --- | --- | --- | --- | --- | --- | --- | --- | --- | --- | --- |
| Cc1ccc(C)c(COCCOCn2c(=O)[nH]c(=O)c3cc(Br)ccc32)c1 | > 100 µM (inactive) | > 100 µM (inactive) | > 100 µM | > 100 µM (inactive) | > 100 µM (inactive) | > 100 µM (inactive) | > 100 µM (inactive) | > 100 µM (inactive) | > 100 µM (inactive) | > 100 µM (inactive) | 52.6 µM (inactive) | > 100 µM (inactive) | > 100 µM (inactive) | > 100 µM (inactive) | 46.6 µM (inactive) | 72.1 µM (inactive) | 53 µM (inactive) | – | – | – |
| COc1cc([C@@H]2c3cc4c(cc3C[C@@H]3COC(=O)C32)OCO4)cc(OC)c1O (stereo partly drawn) | 0.0284 µM (active) | – | 0.0294 µM | 0.0274 µM (active) | 0.0957 µM (active) | 0.031 µM (active) | 0.0277 µM (active) | 0.21 µM (active) | 0.0188 µM (active) | 0.0165 µM (active) | 0.0429 µM (active) | 0.0287 µM (active) | 0.143 µM (active) | – | – | 87.7 µM (inactive) | 0.0263 µM (active) | 0.0269 µM (active) | 0.0221 µM (active) | – |
| CC1=C(c2cc(C(=O)Nc3cccc(C(F)(F)F)c3)nc(NC#N)n2)Sc2ccccc2N1 | > 100 µM (inactive) | > 100 µM (inactive) | > 100 µM | > 100 µM (inactive) | > 100 µM (inactive) | > 100 µM (inactive) | > 100 µM (inactive) | > 100 µM (inactive) | > 100 µM (inactive) | > 100 µM (inactive) | > 100 µM (inactive) | > 100 µM (inactive) | > 100 µM (inactive) | > 100 µM (inactive) | > 100 µM (inactive) | > 100 µM (inactive) | > 100 µM (inactive) | > 100 µM (inactive) | > 100 µM (inactive) | – |
| CC1=NN(C(=O)c2ccc(Cl)cc2)C(=O)/C1=C/c1ccc(O)cc1 | > 100 µM (inactive) | > 100 µM (inactive) | > 100 µM | > 100 µM (inactive) | > 100 µM (inactive) | > 100 µM (inactive) | > 100 µM (inactive) | > 100 µM (inactive) | > 100 µM (inactive) | > 100 µM (inactive) | > 100 µM (inactive) | > 100 µM (inactive) | > 100 µM (inactive) | > 100 µM (inactive) | – | > 100 µM (inactive) | > 100 µM (inactive) | > 100 µM (inactive) | > 100 µM (inactive) | – |
| O=S(=O)(O)c1ccc(NN(c2c(O)ccc3ccccc23)S(=O)(=O)O)cc1 | > 100 µM (inactive) | > 100 µM (inactive) | > 100 µM | > 100 µM (inactive) | – | > 100 µM (inactive) | > 100 µM (inactive) | > 100 µM (inactive) | > 100 µM (inactive) | – | > 100 µM (inactive) | > 100 µM (inactive) | > 100 µM (inactive) | > 100 µM (inactive) | – | > 100 µM (inactive) | > 100 µM (inactive) | > 100 µM (inactive) | > 100 µM (inactive) | > 100 µM (inactive) |
| CCOC(=O)c1c(-c2ccccc2)oc(-c2ccccc2)c1C(=O)OCC | > 100 µM (inactive) | 67.1 µM (inactive) | – | 33.6 µM (inactive) | > 100 µM (inactive) | 67.3 µM (inactive) | > 100 µM (inactive) | 89.3 µM (inactive) | > 100 µM (inactive) | > 100 µM (inactive) | > 100 µM (inactive) | > 100 µM (inactive) | > 100 µM (inactive) | > 100 µM (inactive) | > 100 µM (inactive) | 77.6 µM (inactive) | > 100 µM (inactive) | 50 µM (inactive) | 56.5 µM (inactive) | – |
| COc1ccc2c(c1)[n+]([O-])c(C(=O)CC(=O)C(=O)Nc1cccc(Cl)c1C)c(C)[n+]2[O-] | > 100 µM (inactive) | > 100 µM (inactive) | > 100 µM | 44.5 µM (inactive) | > 100 µM (inactive) | 60.7 µM (inactive) | > 100 µM (inactive) | > 100 µM (inactive) | 27.3 µM (inactive) | > 100 µM (inactive) | > 100 µM (inactive) | > 100 µM (inactive) | > 100 µM (inactive) | > 100 µM (inactive) | > 100 µM (inactive) | > 100 µM (inactive) | > 100 µM (inactive) | 83.6 µM (inactive) | > 100 µM (inactive) | – |
| CCCCCCCC1(c2ccc(N)cc2)CCC(=O)NC1=O (stereo not drawn) | 23.5 µM (inactive) | 29.8 µM (inactive) | 36.8 µM | 17 µM (inactive) | 15.2 µM (inactive) | 28.4 µM (inactive) | 48.4 µM (inactive) | 38.3 µM (inactive) | 22.6 µM (inactive) | 28 µM (inactive) | 34.4 µM (inactive) | 33 µM (inactive) | 30 µM (inactive) | 47.4 µM (inactive) | 22.5 µM (inactive) | 32.9 µM (inactive) | 26.7 µM (inactive) | 19.1 µM (inactive) | 20.7 µM (inactive) | – |
